Results on ten molecules are retold here after publication PMC9785202, “Changes in Disposition of Ezetimibe and Its Active Metabolites Induced by Impaired Hepatic Function: The Influence of Enzyme and Transporter Activities” (Pharmaceutics, 2022).

Read-outs that look alike come from different tables or passages of the source. Marks after values point to notes of the source that are not given here.

One series concerns the target T1, OATP1B3 (Homo sapiens, UniProt Q9NPD5).
T1 sequence (Q9NPD5 1-702): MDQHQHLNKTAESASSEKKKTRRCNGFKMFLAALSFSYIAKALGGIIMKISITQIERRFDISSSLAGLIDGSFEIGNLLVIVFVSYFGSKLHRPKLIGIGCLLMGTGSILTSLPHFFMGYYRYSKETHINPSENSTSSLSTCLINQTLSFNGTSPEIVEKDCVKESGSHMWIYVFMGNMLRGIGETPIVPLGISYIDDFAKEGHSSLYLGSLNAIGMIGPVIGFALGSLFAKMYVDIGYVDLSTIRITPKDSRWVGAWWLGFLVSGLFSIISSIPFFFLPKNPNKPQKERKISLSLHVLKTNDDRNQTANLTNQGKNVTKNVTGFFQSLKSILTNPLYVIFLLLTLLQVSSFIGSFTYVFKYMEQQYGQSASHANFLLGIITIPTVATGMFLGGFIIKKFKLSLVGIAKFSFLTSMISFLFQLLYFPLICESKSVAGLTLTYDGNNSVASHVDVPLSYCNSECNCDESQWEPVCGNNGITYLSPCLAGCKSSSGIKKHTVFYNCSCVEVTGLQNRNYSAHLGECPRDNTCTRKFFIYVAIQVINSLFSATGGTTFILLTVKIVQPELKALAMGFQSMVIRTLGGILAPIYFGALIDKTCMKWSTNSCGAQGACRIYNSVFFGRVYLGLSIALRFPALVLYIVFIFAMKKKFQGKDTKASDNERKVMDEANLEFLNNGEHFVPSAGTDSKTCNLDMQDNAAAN
In words: Inhibition of OATP1B3-mediated uptake in OATP1B3-transfected HEK293 cells by bile acids and rifampicin.

The subject of the next series is rat primary hepatocytes. In words: Inhibition of EZE-Ph uptake into rat primary hepatocytes by bile acids and rifampicin. The conditions noted are these: inhibitor 200 µmol/L, 10 μM EZE-Ph, 10 min.
Series [1] is described as follows: Pharmacokinetics after intravenous or oral administration of 10 mg/kg EZE to control and CCl4-induced rats. It is filed as in vivo. To be noted: for AUC(0-t) / Cmax / Tmax / half-life: Sprague-Dawley, rat, plasma, 10 mg/kg. The protocol: Animals were fasted for 12 h with free access to water before the experiments. EZE was administered orally (prepared in 0.5% carboxymethylcellulose sodium) or intravenously (dissolved in 10% dimethyl sulfoxide, 10% tween-80, and 80% sterile H2O) to CCl4-induced rats (n = 5) and control rats (n = 5) at 10 mg/kg. Blood samples were collected from the retro-orbital venous plexus before administration (0 h), at 5, 15, and 30 min, and at 1, 2, 4, 6, 8, 12, 24, and 48 h after administration in tubes containing EDTA-2K. Plasma samples were harvested by centrifugation at 11,600 g for 5 min at 4 °C and then stored at −80 °C until further analysis.
A 25.0 μL aliquot of each sample and 25.0 μL of internal standard (50.0 ng/mL EZE-d4) were mixed with 100 μL of acetonitrile. After the samples were vortexed and centrifugated at 2250 g for 15 min, the supernatants were used to measure EZE and its metabolites by LC-MS/MS.
WinNonlin version 6.1 (Pharsight Corp., Cary, NC, USA) was used to calculate the pharmacokinetic parameters in a non-compartmental model. Statistical comparisons between the two groups were evaluated using a Student’s two-tailed unpaired t-test or the nonparametric Mann–Whitney test in GraphPad Prism (version 8.0, GraphPad Software Inc, SanDiego, CA, USA). A value of p < 0.05 was considered significant. All data were presented as the mean ± S.D. (n ≥ 3).

For series [2] the following is noted: for Autosampler stability (4°C, 24 h), RE / Post-extraction stability (room temperature 3 h), RE / Freeze-thaw stability (−20°C, three cycles), RE / Short-term stability (room temperature 3 h), RE: n = 6; for Freeze-thaw stability (−20°C, three cycles), RE / Short-term stability (room temperature 3 h), RE: rat plasma.
Series [3] can be described thus: CCl4-induced hepatic failure rat model: liver index and serum ALT, AST, AKP. It is filed as in vivo, Sprague–Dawley (SD) rats. How it is done:
All animal studies were carried out according to the Guide for the Care and Use of Laboratory Animals of the Shanghai Institute of Materia Medica, Chinese Academy of Sciences. Male Sprague–Dawley (SD) rats weighing 180 to 220 g were randomized into two groups. The CCl4-induced model group was administered an intraperitoneal injection of CCl4 (20% in corn oil) at a dose of 2.5 mL/kg three times a week for 8 weeks. The control group was treated intraperitoneally with the same volume of corn oil at the same time intervals. Blood samples were collected and centrifuged at 11,600 g for 5 min to obtain serum samples for the determination of serum ALT, AST, and AKP.
Serum ALT, AST, and AKP were measured using the corresponding assay kits following the manufacturer’s instructions. Tissues fixed in 4% paraformaldehyde were embedded in paraffin, cut into slices with a 3 μm thickness, and stained with hematoxylin and eosin (H&E).

Substrate in series [4]: O=C(O)C1OC(Oc2ccc([C@@H]3[C@@H](CC[C@H](O)c4ccc(F)cc4)C(=O)N3c3ccc(F)cc3)cc2)C(O)C(O)C1O
In words: Uptake of EZE-Ph into OATP1B1-transfected HEK293 cells. Type of series: in vitro ADME, human. The conditions noted are these: other: OATP1B1 HEK293, uptake time 5 min; 37.0 °C. The protocol: The kinetic parameters and the half inhibitory concentration (IC50) were calculated using GraphPad Prism. […] The intrinsic clearance (CLint) was calculated as CLint = Vmax/Km.

Where [5] appears, read: iv, i.v. 10 mg/kg EZE, CCl4-induced rats.
The mark [6] stands for this setting: iv, i.v. 10 mg/kg EZE, control rats.
Where [7] appears, read: po, p.o. 10 mg/kg EZE, CCl4-induced rats.
Where [8] appears, read: po, p.o. 10 mg/kg EZE, control rats.
Setting [9] is: oral administration of 10 mg/kg EZE.
Setting [10] is: CCl4-induced rats vs control rats.
Setting [11] is: serum, CCl4-induced rats, n = 16.

In turn, `C[C@H](CCC(=O)O)[C@H]1CC[C@H]2[C@@H]3[C@@H](O)C[C@@H]4C[C@H](O)CC[C@]4(C)[C@H]3CC[C@]12C` [UDCA, ursodeoxycholic acid] came in with an IC50 at OATP1B3 of 25.5 µM.

Molecule `C[C@H](CCC(=O)O)[C@H]1CC[C@H]2[C@@H]3[C@H](O)C[C@@H]4C[C@H](O)CC[C@]4(C)[C@H]3C[C@H](O)[C@]12C` [CA, cholic acid] had an IC50 against OATP1B3 of 121 µM. This IC50 is about 4.7-fold higher than that of the molecule before.

Turning to `CO[C@H]1/C=C/O[C@@]2(C)Oc3c(C)c(O)c4c(O)c(c(/C=N/N5CCN(C)CC5)c(O)c4c3C2=O)NC(=O)/C(C)=C\C=C\[C@H](C)[C@H](O)[C@@H](C)[C@@H](O)[C@@H](C)[C@H](OC(C)=O)[C@@H]1C` [rifampicin, reference compound], the “EZE-Ph uptake by rat hepatocytes in the presence of inhibitor” value with rat primary hepatocytes is 12.0%. Further, the “uptake of estradiol-17β-glucuronide in OATP1B3-expressing HEK293 cells in the presence of inhibitor” value at OATP1B3 (inhibitor 200 μM, substrate estradiol-17β-glucuronide) was found to be 3.89%.

On OATP1B3, `CC(CCC(=O)NCC(=O)O)C1CCC2C3C(O)CC4CC(O)CCC4(C)C3CCC12C` (stereo not drawn) [GCDCA, glycochenodeoxycholic acid] returned an IC50 of 15.1 µM.

Take `C[C@H](CCC(=O)NCCS(=O)(=O)O)[C@H]1CC[C@H]2[C@@H]3[C@@H](O)C[C@@H]4C[C@H](O)CC[C@]4(C)[C@H]3CC[C@]12C` [TUDCA, tauroursodeoxycholic acid]: half-maximal inhibition against OATP1B3 (IC50) required 26 µM.

Regarding `C[C@H](CCC(=O)O)[C@H]1CC[C@H]2[C@@H]3[C@H](O)C[C@@H]4C[C@H](O)CC[C@]4(C)[C@H]3CC[C@]12C` [CDCA, chenodeoxycholic acid], the IC50 against OATP1B3 was 8.92 µM.

In the case of `O=C(O)[C@H]1O[C@@H](O[C@@H](CC[C@H]2C(=O)N(c3ccc(F)cc3)[C@@H]2c2ccc(O)cc2)c2ccc(F)cc2)[C@H](O)[C@@H](O)[C@@H]1O` [EZE-Hy, ezetimibe hydroxy β-D-glucuronide], in series [1] (setting [5]), the AUC(0-t) was determined as 4250 ± 2050 ng·h/mL, the Cmax amounted to 146 ± 42 ng/mL, the Tmax worked out at 11.2 ± 7.6 h and the half-life was 15.3 ± 2.4 h. Moreover, in series [1] (setting [6]), the AUC(0-t) was found to be 992 ± 392 ng·h/mL, the peak level (Cmax) was 36.9 ± 9.6 ng/mL, the Tmax turned out to be 16.8 ± 6.6 h and the half-life was 16.1 ± 7.6 h. Moreover, in series [1] (setting [7]), the AUC(0-t) was found to be 1170 ± 418 ng·h/mL, the peak level (Cmax) was 38.1 ± 10.1 ng/mL and the Tmax amounted to 14.4 ± 5.4 h. Also, in series [1] (setting [8]), the AUC(0-t) came to 463 ± 160 ng·h/mL, the highest level (Cmax) was 24.6 ± 9.9 ng/mL and the time of peak concentration (Tmax) worked out at 12 h. Also, in series [1] (intravenous injection of 10 mg/kg EZE), the “AUC0–t, fold higher in CCl4-induced rats than in control rats” value is recorded as 4.3 fold. In series [1] (setting [9]), the “AUC0–t, fold higher in CCl4-induced rats than in control rats” value amounted to 2.5 fold and the “share in plasma relative to the main circulating component EZE-Ph” value was determined as 11%. Also, in series [2] (HQC (800/2400/800 ng/ml)), the “Autosampler stability (4°C, 24 h), RE” value is 9.0%; the “Post-extraction stability (room temperature 3 h), RE” value amounted to 5.2%; the “Freeze-thaw stability (−20°C, three cycles), RE” value is on record as 2.0%; the “Short-term stability (room temperature 3 h), RE” value is recorded as -3.6%. In series [2] (LQC (3.00/9.00/3.00 ng/ml)), the “Autosampler stability (4°C, 24 h), RE” value is recorded as 7.9%; the “Post-extraction stability (room temperature 3 h), RE” value was 8.9%; the “Freeze-thaw stability (−20°C, three cycles), RE” value was -0.1%. The “stability in rat plasma under the test conditions” value in series [2] (LQC and HQC samples, short-term, post-extraction, auto-sampler, three freeze/thaw cycles) was “stable”. Also, in series [2] (LQC (EZE/EZE-Ph/EZE-Hy 3.00/9.00/3.00 ng/ml)), the “Short-term stability (room temperature 3 h), RE” value is on record as -6.9%. For the same molecule, the stability in blood entry in series [2] (room temperature for 2 h) is recorded as “stable”.

At OATP1B3, `C[C@H](CCC(=O)NCC(=O)O)[C@H]1CC[C@H]2[C@@H]3[C@@H](O)C[C@@H]4C[C@H](O)CC[C@]4(C)[C@H]3CC[C@]12C` [GUDCA, glycoursodeoxycholic acid] registered an IC50 of 46.1 µM.

For `ClC(Cl)(Cl)Cl` [CCl4, Carbon tetrachloride], in series [3] (setting [10]), the “serum AKP, fold higher than in control rats” value is given as 3.86 fold; the “serum ALT, fold higher than in control rats” value was determined as 8.62 fold; the “serum AST, fold higher than in control rats” value is recorded as 5.76 fold. Further, the Liver weight/body weight in series [3] (CCl4-induced rats, 8 weeks of treatment, n = 16) was 37.9 ± 5.9 ^c. In series [3] (setting [11]), the AKP is 9887 ± 1633 ^d U/L, the ALT is reported as 112 ± 33 ^d U/L and the AST was 125 ± 34 ^d U/L.

B1: OATP1B1 (Homo sapiens) (protein)
chain: MDQNQHLNKTAEAQPSENKKTRYCNGLKMFLAALSLSFIAKTLGAIIMKSSIIHIERRFEISSSLVGFIDGSFEIGNLLVIVFVSYFGSKLHRPKLIGIGCFIMGIGGVLTALPHFFMGYYRYSKETNINSSENSTSTLSTCLINQILSLNRASPEIVGKGCLKESGSYMWIYVFMGNMLRGIGETPIVPLGLSYIDDFAKEGHSSLYLGILNAIAMIGPIIGFTLGSLFSKMYVDIGYVDLSTIRITPTDSRWVGAWWLNFLVSGLFSIISSIPFFFLPQTPNKPQKERKASLSLHVLETNDEKDQTANLTNQGKNITKNVTGFFQSFKSILTNPLYVMFVLLTLLQVSSYIGAFTYVFKYVEQQYGQPSSKANILLGVITIPIFASGMFLGGYIIKKFKLNTVGIAKFSCFTAVMSLSFYLLYFFILCENKSVAGLTMTYDGNNPVTSHRDVPLSYCNSDCNCDESQWEPVCGNNGITYISPCLAGCKSSSGNKKPIVFYNCSCLEVTGLQNRNYSAHLGECPRDDACTRKFYFFVAIQVLNLFFSALGGTSHVMLIVKIVQPELKSLALGFHSMVIRALGGILAPIYFGALIDTTCIKWSTNNCGTRGSCRTYNSTSFSRVYLGLSSMLRVSSLVLYIILIYAMKKKYQEKDINASENGSVMDEANLESLNKNKHFVPSAGADSETHC
notes: host or cells: HEK293
With B1, in series [4], the Km amounted to 91.5 µM, the Vmax amounted to 5.17e-05 µmol/min/mg and the Vmax/Km was found to be 0.56 µL/min/mg.

For orientation: IC50 means the midpoint of a concentration-inhibition curve. Higher therefore signals lower potency. As a reminder, the AUC(0-t) is exposure summed from dosing to a finite time, without extrapolation to infinity. A lower AUC(0-t) goes with less exposure. The Cmax is the highest concentration seen after dosing. As usually defined, the Tmax is the time from dosing to the highest level. By half-life is commonly meant how long it takes for the measured level to halve. One may read the Km as the concentration of substrate that gives half-maximal velocity. As usually defined, the Vmax is the top rate of the reaction or transport when substrate is in excess.
